What is called Ki is the equilibrium dissociation constant of an inhibitor or competing ligand from its target.

Assay [1] addresses T1, human serotonin re-uptake transporter (hSERT) (Homo sapiens, UniProt P31645). The assay is described as follows: Serotonin uptake inhibition in HEK-293 cells stably expressing hSERT. Type of assay: cell-based. The conditions noted are these: transfected HEK-293 cells; Ki from IC50 by Cheng-Prusoff; 20 nM (3H) serotonin; read-out: Inhibition constant Ki for tritiated serotonin uptake. As to the method:
HEK-293 cells stably expressing the human serotonin re-uptake transporter (hSERT) were obtained from R. Blakely, Vanderbilt University, USA. The cells were routinely grown in Dulbeco's Modified Eagles Medium, purchased from Bioconcept, Allschwil, Switzerland containing 10% fetal calf serum, penicillin, streptomycin, L-glutamine and the antibiotic G418 and passaged by trypsinisation. 1 day prior to the assay cells were seeded in the above mentioned medium. Immediately prior to the assay the medium was replaced by Krebs Ringers bicarbonate buffer, purchased from Sigma Chemicals Ltd., supplemented with 35 μM pargyline, 2.2 mM CaCl2, 1 mM ascorbic acid and 5 mM N-2-hydroxyethylpiperazine-N′-2-ethanesulfonic acid (buffer called “Hepes”). Serotonin uptake into the cells was determined by addition of radio-labeled (3H) serotonin (Amersham Biosciences GE Healthcare, Slough, UK) to a concentration of 20 nM, and incubation for 30 minutes at room temperature. Following removal of unincorporated label by gentle washing three times with the above buffer, incorporated serotonin was quantified by liquid scintillation counting.
(§1) The effect of the coumarin ethers of formula I on the serotonin uptake and the citalopram binding was determined by its inclusion in the assay at a range of concentrations between 0.03 and 100 μM for 10 minutes prior to and during the addition of (3H) serotonin/citalopram. Serotonin uptake via the transporter and citalopram binding were both inhibited by the coumarin ethers of formula I in a dose dependent manner. The calculated inhibition constants Ki, derived from the measured IC50 using the Cheng—Prusoff equation (Y. C. Cheng, W. H. Prusoff, Biochem. Pharmacol. 1973, 22, p. 3099-3108), for inhibition of serotonin uptake and citalopram binding by coumarin ethers of the formula I are shown in Table 1.

Assay [2] deals with T1, human serotonin re-uptake transporter (hSERT). Put plainly: Labeled citalopram displacement from hSERT containing membranes (SPA). Type of assay: binding. The conditions noted are these: hSERT containing membranes; Ki from IC50 by Cheng-Prusoff; 3.3 nM (3H) citalopram; read-out: Inhibition constant Ki for tritiated citalopram displacement. The method, then:
Membranes containing hSERT were prepared from the above cell line according to Galli et al, Journal of Experimental Biology 1995, 198, 2197-2212. 3 μg of membrane protein and 0.8 mg of wheat germ aglutinin coated SPA® (scintillation proximity assay) beads (Amersham Biosciences GE Healthcare, Slough, UK) per data point were mixed with radio-labeled (3H) citalopram (Amersham Biosciences GE Healthcare, Slough, UK) until a final concentration of 3.3 nM in 50 mM Tris-HCl, 300 mM NaCl (pH 7.4). After incubation for 18 hours at room temperature, the bound citalopram was quantified by liquid scintillation counting.
as §1

T1 sequence (P31645 whole entry): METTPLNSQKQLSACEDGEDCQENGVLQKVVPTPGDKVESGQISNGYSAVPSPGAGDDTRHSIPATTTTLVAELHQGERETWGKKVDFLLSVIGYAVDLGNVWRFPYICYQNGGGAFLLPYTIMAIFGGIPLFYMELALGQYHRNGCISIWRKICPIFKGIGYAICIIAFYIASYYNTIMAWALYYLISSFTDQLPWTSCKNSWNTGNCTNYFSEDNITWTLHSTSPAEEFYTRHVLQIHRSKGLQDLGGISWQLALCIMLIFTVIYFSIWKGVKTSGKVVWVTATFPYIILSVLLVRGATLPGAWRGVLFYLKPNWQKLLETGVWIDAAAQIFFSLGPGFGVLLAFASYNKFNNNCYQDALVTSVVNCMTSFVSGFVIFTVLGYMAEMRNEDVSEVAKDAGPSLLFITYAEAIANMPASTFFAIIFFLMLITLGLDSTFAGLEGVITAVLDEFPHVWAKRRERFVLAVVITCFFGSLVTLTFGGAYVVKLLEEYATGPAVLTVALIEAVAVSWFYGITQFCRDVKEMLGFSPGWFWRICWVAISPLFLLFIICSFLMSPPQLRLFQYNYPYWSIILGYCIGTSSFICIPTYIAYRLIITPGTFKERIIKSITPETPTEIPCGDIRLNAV

As for `C=C(C)[C@H]1COc2cc3oc(=O)ccc3cc2O1` (racemic) [Obliquin, obliquin], the inhibitory constant (Ki) in assay [1] turned out to be 4.9 µM; in assay [2], 6.1 µM.

These data come from patent publication US8044094B2, “Agents for preventing and treating disorders connected to impaired neurotransmission” (DSM IP Assets B.V., priority 2004, dated 2011).
